ChEMBL document CHEMBL5634158, “From garden to lab: C-3 chemical modifications of tomatidine unveil broad-spectrum ATP synthase inhibitors to combat bacterial resistance” (Eur J Med Chem, 2023)

Tests used:
Format in all cases: functional
Staphylococcus aureus [1] = test: Antibacterial activity against Staphylococcus aureus ATCC 29213 assessed as reduction in microbial growth incubated for 20 hrs under aerobic condition by CLSI based broth microdilution method
Escherichia coli = test: Antibacterial activity against Escherichia coli ATCC 25922 assessed as reduction in microbial growth incubated for 20 hrs under aerobic condition by CLSI based broth microdilution method
Staphylococcus aureus [2] = test: Antibacterial activity against Staphylococcus aureus ATCC 29213 hemB SCV assessed as reduction in microbial growth incubated for 20 hrs under aerobic condition by CLSI based broth microdilution method

An MIC (Staphylococcus aureus [1]) of 4 µg/mL and an MIC (Escherichia coli) of 32 µg/mL were found for `C[C@H]1CC[C@]2(NC1)O[C@H]1C[C@H]3[C@@H]4CC[C@H]5CC(NC[C@H](N)CCc6ccccc6)CC[C@]5(C)[C@H]4CC[C@]3(C)[C@H]1[C@@H]2C` (stereo partly specified) in this work.

An MIC (Staphylococcus aureus [1]) of 4 µg/mL and an MIC (Escherichia coli) of over 64 µg/mL were found for `C[C@H]1CC[C@]2(NC1)O[C@H]1C[C@H]3[C@@H]4CC[C@H]5CC(NC[C@@H](N)C(c6ccccc6)c6ccccc6)CC[C@]5(C)[C@H]4CC[C@]3(C)[C@H]1[C@@H]2C` (mixture of isomers) in this work.

An MIC (Staphylococcus aureus [1]) of 2 µg/mL and an MIC (Escherichia coli) of 64 µg/mL were found for `C[C@H]1CC[C@]2(NC1)O[C@H]1C[C@H]3[C@@H]4CC[C@H]5CC(NC[C@@H](N)Cc6ccc([N+](=O)[O-])cc6)CC[C@]5(C)[C@H]4CC[C@]3(C)[C@H]1[C@@H]2C` (mixture of isomers) in this work.

An MIC (Staphylococcus aureus [1]) of 8 µg/mL and an MIC (Escherichia coli) of over 128 µg/mL were found for `C[C@H]1CC[C@]2(NC1)O[C@H]1C[C@H]3[C@@H]4CC[C@H]5CC(NCc6ccc(O)cc6)CC[C@]5(C)[C@H]4CC[C@]3(C)[C@H]1[C@@H]2C` (mixture of isomers) in this work.

An MIC (Staphylococcus aureus [1]) of 4 µg/mL and an MIC (Escherichia coli) of 32 µg/mL were found for `C[C@H]1CC[C@]2(NC1)O[C@H]1C[C@H]3[C@@H]4CC[C@H]5CC(NC[C@@H](N)Cc6ccccc6Br)CC[C@]5(C)[C@H]4CC[C@]3(C)[C@H]1[C@@H]2C` (mixture of isomers) in this work.

An MIC (Staphylococcus aureus [1]) of 4 µg/mL and an MIC (Escherichia coli) of 32 µg/mL were found for `C[C@H]1CC[C@]2(NC1)O[C@H]1C[C@H]3[C@@H]4CC[C@H]5CC(NC[C@H](N)Cc6ccccc6)CC[C@]5(C)[C@H]4CC[C@]3(C)[C@H]1[C@@H]2C` (mixture of isomers) in this work.

An MIC (Staphylococcus aureus [1]) of 32 µg/mL and an MIC (Escherichia coli) of over 128 µg/mL were found for `C[C@H]1CC[C@]2(NC1)O[C@H]1C[C@H]3[C@@H]4CC[C@H]5CC(NCc6cn(C)cn6)CC[C@]5(C)[C@H]4CC[C@]3(C)[C@H]1[C@@H]2C` (mixture of isomers) in this work.

An MIC (Staphylococcus aureus [1]) of over 128 µg/mL and an MIC (Escherichia coli) of over 128 µg/mL were found for `COC(=O)CNC1CC[C@@]2(C)[C@@H](CC[C@@H]3[C@@H]2CC[C@]2(C)[C@@H]4[C@H](C[C@@H]32)O[C@@]2(CC[C@H](C)CN2)[C@H]4C)C1` (mixture of isomers) in this work.

An MIC (Staphylococcus aureus [1]) of 64 µg/mL and an MIC (Escherichia coli) of over 128 µg/mL were found for `C[C@H]1CC[C@]2(NC1)O[C@H]1C[C@H]3[C@@H]4CC[C@H]5CC(NCCN6CCNC6=O)CC[C@]5(C)[C@H]4CC[C@]3(C)[C@H]1[C@@H]2C` (mixture of isomers) in this work.

An MIC (Staphylococcus aureus [1]) of over 128 µg/mL and an MIC (Escherichia coli) of over 128 µg/mL were found for `C[C@H]1CC[C@]2(NC1)O[C@H]1C[C@H]3[C@@H]4CC[C@H]5CC(NCCO)CC[C@]5(C)[C@H]4CC[C@]3(C)[C@H]1[C@@H]2C` (mixture of isomers) in this work.

An MIC (Staphylococcus aureus [1]) of 4 µg/mL and an MIC (Escherichia coli) of 64 µg/mL were found for `C[C@H]1CC[C@]2(NC1)O[C@H]1C[C@H]3[C@@H]4CC[C@H]5CC(NC[C@@H](C)N)CC[C@]5(C)[C@H]4CC[C@]3(C)[C@H]1[C@@H]2C` (mixture of isomers) in this work.

An MIC (Staphylococcus aureus [1]) of 8 µg/mL and an MIC (Escherichia coli) of over 128 µg/mL were found for `CCCC(N)(CCC)CNC1CC[C@@]2(C)[C@@H](CC[C@@H]3[C@@H]2CC[C@]2(C)[C@@H]4[C@H](C[C@@H]32)O[C@@]2(CC[C@H](C)CN2)[C@H]4C)C1` (mixture of isomers) in this work.

An MIC (Staphylococcus aureus [1]) of 64 µg/mL and an MIC (Escherichia coli) of over 128 µg/mL were found for `C[C@H]1CC[C@]2(NC1)O[C@H]1C[C@H]3[C@@H]4CC[C@H]5CC(NC[C@@H](O)CO)CC[C@]5(C)[C@H]4CC[C@]3(C)[C@H]1[C@@H]2C` (mixture of isomers) in this work.

An MIC (Staphylococcus aureus [1]) of 8 µg/mL and an MIC (Escherichia coli) of 32 µg/mL were found for `C[C@H]1CC[C@]2(NC1)O[C@H]1C[C@H]3[C@@H]4CC[C@H]5CC(NC[C@@H](N)Cc6c[nH]cn6)CC[C@]5(C)[C@H]4CC[C@]3(C)[C@H]1[C@@H]2C` (mixture of isomers) in this work.

An MIC (Staphylococcus aureus [1]) of 32 µg/mL and an MIC (Escherichia coli) of over 128 µg/mL were found for `C[C@H]1CC[C@]2(NC1)O[C@H]1C[C@H]3[C@@H]4CC[C@H]5CC(NCc6ccco6)CC[C@]5(C)[C@H]4CC[C@]3(C)[C@H]1[C@@H]2C` (mixture of isomers) in this work.

An MIC (Staphylococcus aureus [1]) of 8 µg/mL and an MIC (Escherichia coli) of 64 µg/mL were found for `C[C@H]1CC[C@]2(NC1)O[C@H]1C[C@H]3[C@@H]4CC[C@H]5CC(NCCNC(=N)N)CC[C@]5(C)[C@H]4CC[C@]3(C)[C@H]1[C@@H]2C` (mixture of isomers) in this work.

An MIC (Staphylococcus aureus [1]) of 4 µg/mL, an MIC (Escherichia coli) of 32 µg/mL and an MIC (Staphylococcus aureus [2]) of at most 0.25 µg/mL were found for `C[C@H]1CC[C@]2(NC1)O[C@H]1C[C@H]3[C@@H]4CC[C@H]5CC(NC[C@@H](N)Cc6ccc(F)cc6)CC[C@]5(C)[C@H]4CC[C@]3(C)[C@H]1[C@@H]2C` (mixture of isomers) in this work.

An MIC (Staphylococcus aureus [1]) of 2 µg/mL and an MIC (Escherichia coli) of 8 µg/mL were found for `C[C@H]1CC[C@]2(NC1)O[C@H]1C[C@H]3[C@@H]4CC[C@H]5CC(NC[C@@H](N)Cc6cn(C)c7ccccc67)CC[C@]5(C)[C@H]4CC[C@]3(C)[C@H]1[C@@H]2C` (mixture of isomers) in this work.

An MIC (Staphylococcus aureus [1]) of 8 µg/mL and an MIC (Escherichia coli) of over 128 µg/mL were found for `C[C@H]1CC[C@]2(NC1)O[C@H]1C[C@H]3[C@@H]4CC[C@H]5CC(N[C@H]6CCCC[C@@H]6N)CC[C@]5(C)[C@H]4CC[C@]3(C)[C@H]1[C@@H]2C` (mixture of isomers) in this work.

An MIC (Staphylococcus aureus [1]) of 32 µg/mL and an MIC (Escherichia coli) of over 128 µg/mL were found for `C[C@H]1CC[C@]2(NC1)O[C@H]1C[C@H]3[C@@H]4CC[C@H]5CC(NCCNS(C)(=O)=O)CC[C@]5(C)[C@H]4CC[C@]3(C)[C@H]1[C@@H]2C` (mixture of isomers) in this work.

An MIC (Staphylococcus aureus [1]) of 16 µg/mL and an MIC (Escherichia coli) of over 128 µg/mL were found for `C[C@H]1CC[C@]2(NC1)O[C@H]1C[C@H]3[C@@H]4CC[C@H]5CC(NC[C@@H](N)Cc6cccnc6)CC[C@]5(C)[C@H]4CC[C@]3(C)[C@H]1[C@@H]2C` (mixture of isomers) in this work.

An MIC (Staphylococcus aureus [1]) of 2 µg/mL and an MIC (Escherichia coli) of 8 µg/mL were found for `C[C@H]1CC[C@]2(NC1)O[C@H]1C[C@H]3[C@@H]4CC[C@H]5CC(NC[C@@H](N)Cc6cccc(Br)c6)CC[C@]5(C)[C@H]4CC[C@]3(C)[C@H]1[C@@H]2C` (mixture of isomers) in this work.

An MIC (Staphylococcus aureus [1]) of over 128 µg/mL and an MIC (Escherichia coli) of over 128 µg/mL were found for `C[C@H]1CC[C@]2(NC1)O[C@H]1C[C@H]3[C@@H]4CC[C@H]5CC(NCc6ccccn6)CC[C@]5(C)[C@H]4CC[C@]3(C)[C@H]1[C@@H]2C` (mixture of isomers) in this work.

An MIC (Staphylococcus aureus [1]) of 4 µg/mL and an MIC (Escherichia coli) of 16 µg/mL were found for `C[C@H]1CC[C@]2(NC1)O[C@H]1C[C@H]3[C@@H]4CC[C@H]5CC(NC[C@@H](N)CC6CCCCC6)CC[C@]5(C)[C@H]4CC[C@]3(C)[C@H]1[C@@H]2C` (mixture of isomers) in this work.

An MIC (Staphylococcus aureus [1]) of 8 µg/mL and an MIC (Escherichia coli) of 128 µg/mL were found for `C[C@H]1CC[C@]2(NC1)O[C@H]1C[C@H]3[C@@H]4CC[C@H]5CC(NCCN(C)C)CC[C@]5(C)[C@H]4CC[C@]3(C)[C@H]1[C@@H]2C` (mixture of isomers) in this work.
